# Results from ChEMBL document CHEMBL5335778, “Bench-to-bedside: Innovation of small molecule anti-SARS-CoV-2 drugs in China” (Eur J Med Chem, 2023).
# Columns and labels:
# [1] = Oral bioavailability in rat; format: ADME, organism-based; settings: in vivo
# [2] = system: Human immunodeficiency virus 1; assay: Antiviral activity against HIV-1 3B infected in human MT4 cells assessed as reduction in virus-induced cytopathic effect incubated for 5 days by MTT assay; format: functional, organism-based; settings: Human immunodeficiency virus 1, 3B, MT4, 120 h
# [3] = Cytotoxicity against human MT4 cells assessed as reduction in cell viability treated for 5 days by MTT assay; format: toxicity, cell-based; settings: time 5 day
# SARS-CoV-2 [4] = assay: Antiviral activity against SARS-CoV-2 Omicron assessed as reduction of viral growth; format: functional, organism-based; settings: Severe acute respiratory syndrome coronavirus 2, Omicron
# [5] = target: Human immunodeficiency virus type 1 protease (Human immunodeficiency virus 1, UniProt Q72874); assay: Inhibition of HIV-1 protease
# SARS-CoV-2 [6] = assay: Antiviral activity against SARS-Co-V-2 infected in Vero E6 cells assessed as reduction in viral replication; format: functional, organism-based; settings: Severe acute respiratory syndrome coronavirus 2, Vero C1008
# SARS-CoV-2 [7] = assay: Antiviral activity against SARS-CoV-2 infected in human A549-ACE2 cells; format: functional, organism-based; settings: Severe acute respiratory syndrome coronavirus 2, A549-ACE2
# Hepatitis C virus = assay: Antiviral activity against HCV infected in human Huh-7.5.1 cells assessed as reduction in viral infection incubated for 48 hrs by MTS assay; format: functional, organism-based, Hepacivirus hominis; settings: Huh-7.5.1, 48 h
# SARS-CoV-2 [8] = assay: Antiviral activity against SARS-CoV-2 in human A549-ACE2 cells assessed as reduction in viral growth; format: functional, organism-based; settings: Severe acute respiratory syndrome coronavirus 2, A549-ACE2
# SARS-CoV-2 [9] = assay: Antiviral activity against SARS-CoV-2 B.1 infected in Green monkey VeroE6/TMPRSS2 cells assessed as inhibition of viral replication incubated for 2 days by qRT-PCR analysis; format: functional, organism-based; settings: Severe acute respiratory syndrome coronavirus 2, B.1, VeroE6/TMPRSS2, 48 h
# [10] = Inhibition of DENV RNA-dependent RNA polymerase activity; parameters: species or system Dengue virus
# [11] = Oral bioavailability in Beagle dog at 3 mg/kg; format: ADME, organism-based, Canis lupus familiaris; settings: in vivo
# [12] = Cytotoxicity against African green monkey Vero E6 cells assessed as cell growth inhibition measured after 48 hrs by CCK-8 assay; format: toxicity, cell-based, Vero C1008; settings: chlorocebus sabaeus
# SARS-CoV-2 [13] = assay: Antiviral activity against SARS-COV-2 infected in African green monkey Vero E6 cells assessed as reduction in viral growth; format: functional, organism-based; settings: Severe acute respiratory syndrome coronavirus 2, Vero C1008
# [14] = Oral bioavailability in Sprague-Dawley rat at 3 mg/kg by HPLC analysis; format: ADME, organism-based; settings: in vivo
# [15] = Oral bioavailability in monkey at 3 mg/kg, HPLC analysis; format: ADME, organism-based, Macaca mulatta; settings: rhesus monkey, in vivo
# [16] = Oral bioavailability in human at 2 mg; format: ADME, organism-based; settings: in vivo
# [17] = Plasma protein binding in rat assessed as free fraction by equilibrium dialysis analysis; format: ADME, cell-free
# SARS-CoV-2 [18] = assay: Antiviral activity against SARS-CoV-2 infected in African green monkey Vero E6 cells assessed as reduction in infection measured after 24 hrs by Plaque assay; format: functional, organism-based; settings: Severe acute respiratory syndrome coronavirus 2, Vero C1008, 24 h
# [19] = Selectivity index, ratio of CC50 for African green monkey Vero cells to EC50 for SARS-COV-2; format: cell-based; settings: read-out: Ratio CC50/EC50
# [20] = Oral bioavailability in rat at 2 mg/kg by LC-MS/MS analysis; format: ADME, organism-based; settings: in vivo
# SARS-CoV-2 [21] = assay: Antiviral activity against luciferase-expressing pseudovirus encoding SARS-CoV-2 Omicron expressing S protein infected in human 293T/ACE2 cells assessed as reduction of viral growth measured after 48 hrs by luciferase assay; format: functional, organism-based; settings: Severe acute respiratory syndrome coronavirus 2, 293T/ACE2, 48 h
# SARS-CoV-2 [22] = assay: Antiviral activity against SARS-CoV-2 infected in human A549-ACE2 cells assessed as reduction in viral replication; format: functional, organism-based; settings: Severe acute respiratory syndrome coronavirus 2, A549-ACE2
# SARS-CoV-2 [23] = assay: Antiviral activity against SARS-CoV-2 infected in African green monkey Vero E6 cells assessed as reduction in cell growth; format: functional, organism-based; settings: Severe acute respiratory syndrome coronavirus 2, Vero C1008
# [24] = system: Respiratory syncytial virus; assay: Antiviral activity against Respiratory syncytial virus; format: functional, organism-based; settings: human respiratory syncytial virus
# [25] = Inhibition of HIV-1 […]; parameters: species or system Human immunodeficiency virus 1
# [26] = target: Replicase polyprotein 1ab (Severe acute respiratory syndrome coronavirus 2, UniProt P0DTD1); assay: Inhibition of N-terminal His6-tagged recombinant full length SARS-CoV-2 3CLpro expressed in Escherichia coli BL21(DE3) using MCA-AVLQSGFR-Lys(Dnp)-Lys-NH2 as fluorogenic substrate preincubated with compound for 10 mins followed by substrate addition by FRET assay
# Replicase polyprotein 1a = Replicase polyprotein 1a (Severe acute respiratory syndrome-related coronavirus, UniProt P0C6U8); assay: Inhibition of SARS-CoV 3CLpro
# SARS-CoV-2 [27] = assay: Antiviral activity against SARS-CoV-2 infected in Vero E6 cells assessed as reduction in viral replication; format: functional, organism-based; settings: Severe acute respiratory syndrome coronavirus 2, Vero C1008
smiles,measurement,setting,value
[2H]c1cc([C@]2(C#N)O[C@H](CO)[C@@H](O)[C@H]2O)n2ncnc(N)c12,bioavailability,[1],21.7%
same,EC50,[2],390 nM
same,CC50 at 120 h,[3],> 500000 nM
O=C1C=C(Nc2ccccc2C2CCNCC2)C2=NS(=O)(=O)c3cccc1c32,EC50,SARS-CoV-2 [4],33 nM
[N-]=[N+]=N[C@]1(CO)O[C@@H](n2ccc(N)nc2=O)[C@H](O)[C@@H]1O [4'-AZIDOCYTIDINE],IC50,[5],1280 nM
COc1ccc2cc1Oc1ccc(cc1)C[C@H]1c3c(cc4c(c3Oc3cc5c(cc3OC)CCN(C)[C@@H]5C2)OCO4)CCN1C [CEPHARANTHINE],EC50,SARS-CoV-2 [6],980 nM
same,IC50,SARS-CoV-2 [7],240 nM
same,IC50,Hepatitis C virus,60 nM
same,IC50,SARS-CoV-2 [8],240 nM
same,IC50,SARS-CoV-2 [9],1900 nM
Br.[2H]c1cc([C@]2(C#N)O[C@H](COC(=O)C(C)C)[C@@H](OC(=O)C(C)C)[C@H]2OC(=O)C(C)C)n2ncnc(N)c12 [DEUREMIDEVIR HYDROBROMIDE],EC50,[10],240 nM
same,bioavailability,[11],80%
same,bioavailability,[1],80%
same,EC50,[2],240 nM
CC[C@H](C)[C@@H](C(=O)O[C@@H](CC(C)C)C(=O)N[C@@H](CC(C)C)C(=O)N[C@@H](C)/C=C/C(=O)N1C(=O)C=C(OC)[C@@H]1C)N(C)C [GALLINAMIDE A],CC50 at 48 h,[12],88 nM
same,EC50,SARS-CoV-2 [13],28 nM
N#C[C@@]1(c2ccc3c(N)ncnn23)O[C@H](CO)[C@@H](O)[C@H]1O [GS-441524],bioavailability,[14],16%
same,bioavailability,[15],< 8%
same,bioavailability,[16],13%
same,fraction unbound,[17],0.62
same,EC50,SARS-CoV-2 [18],390 nM
same,selectivity ratio,[19],> 1280
same,bioavailability,[20],50%
same,EC50,[2],590 nM
same,CC50 at 120 h,[3],> 500000 nM
CC[C@H](C)[C@H]1NC(=O)[C@@H](NC(=O)[C@@H](CC(C)C)N(C)C(=O)[C@@H]2CCCN2C(=O)C(C)=O)[C@@H](C)OC(=O)[C@H](Cc2ccc(OC)cc2)N(C)C(=O)[C@@H]2CCCN2C(=O)[C@H](CC(C)C)NC(=O)[C@@H](C)C(=O)[C@H](C(C)C)OC(=O)C[C@@H]1O [PLITIDEPSIN],EC50,SARS-CoV-2 [21],350 nM
same,EC50,SARS-CoV-2 [22],100 nM
same,EC50,SARS-CoV-2 [23],0.7 nM
N#C[C@@]1(c2ccc3c(N)ncnn23)O[C@H](COP(=O)(O)OP(=O)(O)OP(=O)(O)O)[C@@H](O)[C@H]1O [RDV-TP],EC50,[24],13 nM
[N-]=[N+]=N[C@]1(CO)O[C@@H](n2ccc(N)nc2=O)[C@@H](F)[C@@H]1O [RO-0622],EC50,[25],1200 nM
O=C(OC[C@H]1O[C@@H](OC(=O)c2cc(O)c(O)c(OC(=O)c3cc(O)c(O)c(O)c3)c2)[C@H](OC(=O)c2cc(O)c(O)c(OC(=O)c3cc(O)c(O)c(O)c3)c2)[C@@H](OC(=O)c2cc(O)c(O)c(OC(=O)c3cc(O)c(O)c(O)c3)c2)[C@@H]1OC(=O)c1cc(O)c(O)c(OC(=O)c2cc(O)c(O)c(O)c2)c1)c1cc(O)c(O)c(OC(=O)c2cc(O)c(O)c(O)c2)c1 [TANNIC ACID],EC50,[26],585 nM
same,EC50,Replicase polyprotein 1a,8310 nM
same,EC50,SARS-CoV-2 [27],12900 nM
N#Cc1cn([C@@H]2O[C@H](CO)[C@@H](O)[C@H]2O)c2ncnc(N)c12 [TOYOCAMYCIN],EC50,SARS-CoV-2 [18],590 nM
Nc1ncnc2c1ccn2[C@@H]1O[C@H](CO)[C@@H](O)[C@H]1O [TUBERCIDIN],EC50,SARS-CoV-2 [18],590 nM
